Values of other authors in patent publication US12310930B2 (YS PHARMTECH, priority 2016, dated 2025).
Where two headings read alike, the source gives them in different places.

- association constant (K) (pH 3.5, aqueous solution): 488 M⁻¹
- association constant (K) (pH 5.5, aqueous solution): 111 M⁻¹
Structure (SMILES): CNCC(O)c1ccc(O)c(O)c1 (single isomer, unassigned; (-)) [epinephrine, (−)-3,4-Dihydroxy-α-[(methylamino)methyl]benzyl alcohol]
